BigSolDB 2.1

`O=C(Nc1ccc(Cl)cc1)Nc1ccc(Cl)c(Cl)c1` showed a solubility (mole fraction) (in 1,4-dioxane, 288.15 K) of 0.00103, a solubility (mole fraction) (in 1,4-dioxane, 293.15 K) of 0.00176 and a solubility (mole fraction) (in 1,4-dioxane, 298.15 K) of 0.00239. It also gave a solubility (mole fraction) (in 1,4-dioxane, 303.15 K) of 0.00403, a solubility (mole fraction) (in 1,4-dioxane, 308.15 K) of 0.00658 and a solubility (mole fraction) (in 1,4-dioxane, 313.15 K) of 0.00931. The solubility (mole fraction) (in 1,4-dioxane, 318.15 K) was 0.0141, the solubility (mole fraction) (in cyclohexane, 288.15 K) was 1.68e-07 and the solubility (mole fraction) (in cyclohexane, 293.15 K) was 2.73e-07. The solubility (mole fraction) (in cyclohexane, 298.15 K) was 4.23e-07, the solubility (mole fraction) (in cyclohexane, 303.15 K) was 7.31e-07 and the solubility (mole fraction) (in cyclohexane, 308.15 K) was 1.17e-06. It also gave a solubility (mole fraction) (in cyclohexane, 313.15 K) of 1.82e-06 and a solubility (mole fraction) (in cyclohexane, 318.15 K) of 2.72e-06.
